{"source": "PubChem BioAssay AID264", "about": "(DTP/NCI, 2004)", "tested_on": "nude mice, LX-1 lung xenograft intrarenal, tumor weight T/C", "experiment": "NCI In Vivo Anticancer Drug Screen. Data for tumor model Human Lung LX-1 Xenograft (intrarenal inoculation) in NU/NU Swiss (nude) mice", "settings": "endpoint: mean tumor weight change, higher = larger tumour", "method_in_brief": "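In vivo, transplantable tumor; compound vs vehicle arms; tumor size measured; value = T/C.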", "key": {"[1]": {"settings": "dose: 150.0 mg/kg/injection, schedule: Q04DX003 (sc), vehicle: saline"}}, "note": "Values joined by “and” are separate entries in the source; they are usually repeats but may differ in a detail not shown here. Equal values may be shown once. Results filed as inconclusive are left out.", "data": [{"smiles": "CN(C)N=Nc1ccccc1", "values": [{"measurement": "T/C", "setting": "dose: 12.5 mg/kg/injection, schedule: Q01DX010 (sc), vehicle: Klucel (hydroxypropylcellulose) (HPC)", "result": "12 % of control"}, {"measurement": "T/C", "setting": "dose: 50.0 mg/kg/injection, schedule: Q01DX010 (sc), vehicle: Klucel (hydroxypropylcellulose) (HPC)", "result": "-98 % of control"}]}, {"smiles": "C1CC[N-]CC1.C1CC[N-]CC1.C1CC[N-]CC1.[Cl][Rh]([Cl])[Cl]", "values": [{"measurement": "T/C", "setting": "dose: 75.0 mg/kg/injection, schedule: Q04DX003 (sc), vehicle: saline", "result": "78 % of control"}, {"measurement": "T/C", "setting": "[1]", "result": "87 % of control"}]}, {"smiles": "O=C(O)CCCCCCCC(=O)O", "values": [{"measurement": "T/C", "setting": "dose: 150.0 mg/kg/injection, schedule: Q04DX003 (sc), vehicle: distilled water + Tween-80", "result": "105 % of control"}, {"measurement": "T/C", "setting": "dose: 300.0 mg/kg/injection, schedule: Q04DX003 (sc), vehicle: distilled water + Tween-80", "result": "79 % of control"}, {"measurement": "T/C", "setting": "dose: 600.0 mg/kg/injection, schedule: Q04DX003 (sc), vehicle: distilled water + Tween-80", "result": "60 % of control"}, {"measurement": "T/C", "setting": "dose: 1200.0 mg/kg/injection, schedule: Q04DX003 (sc), vehicle: distilled water + Tween-80", "result": "50 % of control"}]}, {"smiles": "O=c1[nH]c(=O)n(C2OC(CO)C(O)C2O)cc1F", "note": "(stereo not drawn)", "values": [{"measurement": "T/C", "setting": "dose: 9.37 mg/kg/injection, schedule: Q04DX003 (sc), vehicle: saline", "result": "77 % of control"}, {"measurement": "T/C", "setting": "dose: 18.75 mg/kg/injection, schedule: Q04DX003 (sc), vehicle: saline", "result": "26 % of control"}]}, {"smiles": "COC(=O)C(Cl)(Cl)N=Nc1c(Cl)cc(Cl)c(C)c1Cl", "values": [{"measurement": "T/C", "setting": "dose: 150.0 mg/kg/injection, schedule: Q04DX003 (sc), vehicle: saline with Tween-80", "result": "210 % of control"}, {"measurement": "T/C", "setting": "dose: 300.0 mg/kg/injection, schedule: Q04DX003 (sc), vehicle: saline with Tween-80", "result": "196 % of control"}, {"measurement": "T/C", "setting": "dose: 600.0 mg/kg/injection, schedule: Q04DX003 (sc), vehicle: saline with Tween-80", "result": "237 % of control"}, {"measurement": "T/C", "setting": "dose: 1200.0 mg/kg/injection, schedule: Q04DX003 (sc), vehicle: saline with Tween-80", "result": "209 % of control"}]}, {"smiles": "O=NN(CCCl)C(=O)NC1CCC(=O)NC1=O", "note": "(stereo not drawn)", "values": [{"measurement": "T/C", "setting": "dose: 1.56 mg/kg/injection, schedule: Q01DX010 (ip), vehicle: saline with Tween-80", "result": "29 % of control"}, {"measurement": "T/C", "setting": "dose: 3.13 mg/kg/injection, schedule: Q01DX010 (ip), vehicle: saline with Tween-80", "result": "3 % of control"}, {"measurement": "T/C", "setting": "dose: 3.13 mg/kg/injection, schedule: Q01DX010 (sc), vehicle: saline with Tween-80", "result": "10 % of control"}, {"measurement": "T/C", "setting": "dose: 5.2 mg/kg/injection, schedule: Q04DX003 (ip), vehicle: saline with Tween-80", "result": "5 % of control"}, {"measurement": "T/C", "setting": "dose: 6.25 mg/kg/injection, schedule: Q01DX010 (ip), vehicle: saline with Tween-80", "result": "-74 % of control"}, {"measurement": "T/C", "setting": "dose: 10.4 mg/kg/injection, schedule: Q04DX003 (ip), vehicle: saline with Tween-80", "result": "-94 % of control"}]}, {"smiles": "CS(=O)(=O)CS(=O)(=O)OCCCl", "values": [{"measurement": "T/C", "setting": "dose: 150.0 mg/kg/injection, schedule: Q04DX003 (sc), vehicle: suspension in saline", "result": "94 % of control"}]}, {"smiles": "OC(CCl)CN1CC[N+]2(CC1)CC[N+]1(CCN(CC(O)CCl)CC1)CC2", "note": "(stereo not drawn)", "values": [{"measurement": "T/C", "setting": "dose: 128.0 mg/kg/injection, schedule: Q01DX010 (sc), vehicle: water", "result": "78 % of control"}, {"measurement": "T/C", "setting": "dose: 256.0 mg/kg/injection, schedule: Q01DX010 (sc), vehicle: water", "result": "59 % of control"}]}, {"smiles": "CCCCCCCC(=O)[O][Hg][CH2]C1COC([CH2][Hg][O]C(=O)CCCCCCC)CO1", "note": "(stereo not drawn)", "values": [{"measurement": "T/C", "setting": "dose: 6.25 mg/kg/injection, schedule: Q01DX010 (sc), vehicle: saline with Tween-80", "result": "224 % of control"}, {"measurement": "T/C", "setting": "dose: 25.0 mg/kg/injection, schedule: Q01DX010 (sc), vehicle: saline with Tween-80", "result": "106 % of control"}, {"measurement": "T/C", "setting": "dose: 50.0 mg/kg/injection, schedule: Q01DX010 (sc), vehicle: saline with Tween-80", "result": "75 % of control and 79 % of control"}, {"measurement": "T/C", "setting": "dose: 100.0 mg/kg/injection, schedule: Q01DX010 (sc), vehicle: saline with Tween-80", "result": "61 % of control"}, {"measurement": "T/C", "setting": "dose: 200.0 mg/kg/injection, schedule: Q01DX010 (sc), vehicle: saline with Tween-80", "result": "42 % of control"}, {"measurement": "T/C", "setting": "dose: 400.0 mg/kg/injection, schedule: Q01DX010 (sc), vehicle: saline with Tween-80", "result": "24 % of control"}]}, {"smiles": "COC(=O)C12OCC34C(CC5C(C)=CC(=O)C(O)C5(C)C3C(O)C1O)OC(=O)C(OC(=O)CC(C)C)C24", "note": "(stereo not drawn)", "values": [{"measurement": "T/C", "setting": "dose: 3.0 mg/kg/injection, schedule: Q04DX003 (sc), vehicle: saline + alcohol", "result": "48 % of control"}]}, {"smiles": "CC12CCC3C(CCC4CC(OC(=O)Cc5ccc(N(CCCl)CCCl)cc5)CCC43C)C1CCC(=O)N2", "note": "(stereo not drawn)", "values": [{"measurement": "T/C", "setting": "dose: 25.0 mg/kg/injection, schedule: Q04DX003 (sc), vehicle: saline with Tween-80", "result": "43 % of control and 66 % of control"}, {"measurement": "T/C", "setting": "dose: 200.0 mg/kg/injection, schedule: Q04DX003 (sc), vehicle: saline with Tween-80", "result": "8 % of control and 9 % of control"}]}, {"smiles": "CCn1cnc2c(=S)nc[nH]c21", "values": [{"measurement": "T/C", "setting": "[1]", "result": "159 % of control"}, {"measurement": "T/C", "setting": "dose: 600.0 mg/kg/injection, schedule: Q04DX003 (sc), vehicle: saline", "result": "224 % of control"}]}, {"smiles": "O=C1NC(=O)C2C3C=CC(C12)C1C2C(=O)NC(=O)C2C31", "note": "(stereo not drawn)", "values": [{"measurement": "T/C", "setting": "dose: 100.0 mg/kg/injection, schedule: Q04DX003 (sc), vehicle: saline with Tween-80", "result": "123 % of control"}, {"measurement": "T/C", "setting": "dose: 400.0 mg/kg/injection, schedule: Q04DX003 (sc), vehicle: saline with Tween-80", "result": "84 % of control"}, {"measurement": "T/C", "setting": "dose: 800.0 mg/kg/injection, schedule: Q04DX003 (sc), vehicle: saline with Tween-80", "result": "75 % of control"}, {"measurement": "T/C", "setting": "dose: 1600.0 mg/kg/injection, schedule: Q04DX003 (sc), vehicle: saline with Tween-80", "result": "105 % of control"}]}]}
